# Laboratory results as given in PubChem BioAssay (NCI).
#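 The concentration for 50% growth inhibition is given as GI50. TGI denotes the concentration required for complete inhibition of growth.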
# Tests used:
# Assay in all cases: NCI-60 cell line screen, 384-well format
# [1] = test system: NCI-H23 lung
# [2] = test system: HCT-116 colon
# [3] = test system: T-47D breast
# [4] = test system: EKVX NSCLC
# [5] = test system: MALME-3M melanoma
# [6] = test system: HL-60(TB) leukemia
# [7] = test system: SK-MEL-28 melanoma
# [8] = test system: SF-539 CNS
# [9] = test system: SR leukemia
# [10] = test system: HT29 colon
# [11] = test system: HCC-2998 colon
# [12] = test system: SK-MEL-5 melanoma
# [13] = test system: 786-0 renal
smiles,measurement,setting,value
C[C@@H](O)[C@H](NC(=O)N[C@@H](CC(N)=O)c1nc([C@@H](N)CO)no1)C(=O)O,GI50,[1],> 100 µM
same,TGI,[1],> 100 µM
same,GI50,[2],> 100 µM
same,TGI,[2],> 100 µM
same,GI50,[3],> 100 µM
same,TGI,[3],> 100 µM
same,GI50,[4],> 100 µM
same,TGI,[4],> 100 µM
same,GI50,[5],> 100 µM
same,TGI,[5],> 100 µM
same,GI50,[6],> 100 µM
same,TGI,[6],> 100 µM
same,GI50,[7],> 100 µM
same,TGI,[7],> 100 µM
same,GI50,[8],> 100 µM
same,TGI,[8],> 100 µM
same,GI50,[9],> 100 µM
same,TGI,[9],> 100 µM
same,GI50,[10],> 100 µM
same,TGI,[10],> 100 µM
same,GI50,[11],> 100 µM
same,TGI,[11],> 100 µM
same,GI50,[12],> 100 µM
same,TGI,[12],> 100 µM
same,GI50,[13],> 100 µM
same,TGI,[13],> 100 µM
